The values that follow come from patent publication US11911382B2, “Method for treating pulmonary arterial hypertension and associated pulmonary arterial hypertension” (Altavant Sciences GmbH, priority 2018, dated 2024).

Series [1] concerns PAH, monocrotaline prevention model. Briefly: monocrotaline prevention model of PAH. The series is classed as in vivo. The conditions noted are these: rat, oral RVT-1201 100 mg/kg/day.
In series [2] the test system is established PAH, SUGEN-hypoxia treatment model. Put plainly: SUGEN-hypoxia treatment model for established PAH. The series is classed as in vivo. The conditions noted are these: rat, oral RVT-1201 100 mg/kg/day.
The subject of another series is serotonin biosynthesis. Briefly: serotonin biomarkers in rat (serum serotonin, urinary 5-HIAA). In kind it is in vivo. The conditions noted are these: 30 to 300 mg/kg/day, dose-dependent. The method, then:
RVT-1201 (30 to 300 mg/kg/day) may yield a dose-dependent reduction in rat serum serotonin (−27% to −96%) and 24 h urinary output of 5-HIAA (−45% to −56%). HIAA is a metabolite that reflects total serotonin biosynthesis.

In another series the test system is serotonin biomarkers. Briefly: divided dose studies in rats. In kind it is in vivo, rat.
Series [3] can be described thus: safety and tolerability in healthy human subjects. The series is classed as in vivo. The note with it: doses required to achieve clinically-relevant AUC. How it is done: (§1) Healthy human subjects (n=˜120) may receive RVT-1201.
(§2) Mean change in plasma 5-HIAA may be about −53% from Day 1 to Day 14, whereas placebo may be about +26%. Interpolation of KAR5417 AUC between 400 mg and 800 mg BID regimens may show 500-600 mg BID in humans will achieve the target exposure associated with efficacy in rat models.

Series [4] can be described thus: pharmacokinetics in healthy human subjects. The conditions noted are these: humans, interpolation of KAR5417 AUC between 400 mg and 800 mg BID regimens. The series is classed as in vivo. The method, then:
as §1, §2

Another series concerns 5-HIAA. Briefly: plasma 5-HIAA in healthy human subjects. The series is classed as in vivo. The conditions noted are these: 400 mg BID, Day 1 to Day 14. The method, then:
as §2

The next series concerns the target T1, TPH1 (Mus musculus, UniProt P17532).
T1 construct: from tissue; host or cells: live mice (in vivo)
T1 sequence (P17532 1-447): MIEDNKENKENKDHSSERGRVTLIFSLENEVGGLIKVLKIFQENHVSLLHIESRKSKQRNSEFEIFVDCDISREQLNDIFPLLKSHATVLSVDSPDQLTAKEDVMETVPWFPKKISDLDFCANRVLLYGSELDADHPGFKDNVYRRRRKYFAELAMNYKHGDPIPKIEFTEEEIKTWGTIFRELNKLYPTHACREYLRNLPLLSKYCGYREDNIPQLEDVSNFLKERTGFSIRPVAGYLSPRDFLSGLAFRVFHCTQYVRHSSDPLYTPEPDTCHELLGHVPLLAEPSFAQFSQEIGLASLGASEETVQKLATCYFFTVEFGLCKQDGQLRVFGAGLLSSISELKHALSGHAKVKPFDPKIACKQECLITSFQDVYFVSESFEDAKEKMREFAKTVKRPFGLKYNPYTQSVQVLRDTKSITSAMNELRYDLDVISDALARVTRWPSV
The conditions noted are these: amorphous form; cited from earlier work.

A short description of series [5]: stability of crystalline polymorphs. In kind it is physicochemical. The conditions noted are these: particularly at temperatures of less than 95° C. The text has this: The above-referenced compound can be used to prevent or treat PAH/APAH in either an amorphous or crystalline form. Two different polymorph crystalline forms are identified by x-ray powder diffraction patterns set forth in FIG. 1 (Form 3) and FIG. 2 (Form 1) as well as Tables 1 and 2 (Form 3) and Tables 3 and 4 (Form 1).

The structures appear in SMILES notation.

As for `CCOC(=O)[C@@H]1CC2(CCN(c3cc(O[C@H](c4ccc(Cl)cc4-c4ccccc4)C(F)(F)F)nc(N)n3)CC2)CN1` [RVT-1201, (S)-ethyl 8-(2-amino-6-((R)-1-(5-chloro-[1,1′-biphenyl]-2-yl)-2,2,2-trifluoroethoxy)pyrimidin-4-yl)-2,8-diazaspiro[4.5]decane-3-carboxylate], in series [1], the “effect on PAH” value is “block or ameliorate PAH”. Moreover, the “effect on PAH” value in series [2] was “block or ameliorate PAH”. In addition, in the series on serotonin biosynthesis, the “reduction in 24 h urinary output of 5-HIAA” value is listed as −45% to −56% and the “reduction in rat serum serotonin” value was −27% to −96%. The “once daily administration versus BID or TID regimens” value in the series with serotonin biomarkers is reported as “comparable to BID or TID regimens”. Moreover, in the series with serotonin biomarkers (75 mg/kg/day, divided dose studies), the serotonin reduction was roughly 65%. Further, the tolerability result in series [3] is given as “well tolerated”. In series [4], the “BID dose achieving target exposure associated with efficacy in rat models” value was in the range of 500 to 600 mg. Further, the “mean change in plasma 5-HIAA” value in the series on 5-HIAA was “about −53%”. Also, the “efficacy in inhibiting TPH1 in mice” value at TPH1 is reported as “demonstrated”.
In the case of `CCOC(=O)[C@@H]1CC2(CCN(c3cc(O[C@H](c4ccc(Cl)cc4-c4ccccc4)C(F)(F)F)nc(N)n3)CC2)CN1` [crystalline Form 3, (S)-ethyl 8-(2-amino-6-((R)-1-(5-chloro-[1,1′-biphenyl]-2-yl)-2,2,2-trifluoroethoxy)pyrimidin-4-yl)-2,8-diazaspiro[4.5]decane-3-carboxylate], the “stability and shelf life compared to crystalline Form 1 polymorph” value in series [5] was “substantially greater stability and shelf life”.
